For data set [1], the target named is T1, human cardiac calsequestrin (hCASQ2) (Homo sapiens, UniProt O14958).
T1 sequence (O14958 20-399): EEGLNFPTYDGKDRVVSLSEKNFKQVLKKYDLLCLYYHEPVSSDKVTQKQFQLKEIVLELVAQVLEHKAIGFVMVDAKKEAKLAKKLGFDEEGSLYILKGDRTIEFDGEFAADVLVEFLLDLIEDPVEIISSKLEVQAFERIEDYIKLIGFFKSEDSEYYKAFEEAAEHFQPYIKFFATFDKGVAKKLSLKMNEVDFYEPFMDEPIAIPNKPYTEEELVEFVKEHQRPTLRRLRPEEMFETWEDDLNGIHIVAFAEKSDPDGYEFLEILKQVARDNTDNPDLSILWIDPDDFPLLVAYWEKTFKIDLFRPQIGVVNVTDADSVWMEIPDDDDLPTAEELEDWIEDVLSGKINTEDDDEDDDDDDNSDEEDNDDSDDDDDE
The arrangement: method as in PMID 20713040. To be noted: cited from earlier work; for binding class based on ITC dissociation constants (Kd): hCASQ2, drugs grouped as strong, moderate or poor binders; for Kd: hCASQ2, ITC, previous studies, read-out: experimental dissociation constant (Kd).

Data set [2] has as its target T1, human cardiac calsequestrin (hCASQ2). Description: Isothermal titration calorimetry (ITC) of drug binding to hCASQ2, with or without caffeine. The conditions noted are these: hCASQ2, titration in the absence of caffeine (Supplemental Fig. 2); read-out: Dissociation constant (Kd). Here is the method: We performed ITC assays to check the predicted competition between the natural compounds (CAF, EGC, and EGCG) and tested synthetic drugs.
ITC experiments were conducted using a previous protocol, with slight modifications. The protein and drug concentrations were kept at 50 μM and 2 mM, respectively, while the CAF concentration was allowed to vary between 0 and 5 mM for different drugs. […] Origin software (Origin Lab Corp, Northampton, MA, USA) was used to fit the data to a one-site binding model via non-linear least squares regression.
In general terms: In ITC the heat of successive injections is recorded.

The subject of another data set is SR microsomes. The arrangement: method as in PMID 16141311, PMID 15492117. The conditions noted are these: concentration- and time-dependent; cited from earlier work.

Where two headings read alike, the source gives them in different places.

As to `CN(C)CCC=C1c2ccccc2CCc2ccccc21` [amitriptyline], the “binding class based on ITC dissociation constants (Kd)” value (“binding class based” below) in data set [1] is given as “moderate”. With `CCOC(=O)C1=C(COCCN)NC(C)=C(C(=O)OC)C1c1ccccc1Cl` (stereo not drawn) [amlodipine], in data set [1], the Kd is 20.4 µM and the “binding class based” value is “strong”. With `CN(C)CCCN1c2ccccc2Sc2ccc(Cl)cc21` [chlorpromazine], the Kd in data set [2] was 102 µM. For the same molecule, the “binding class based” value in data set [1] is recorded as “poor”. On to `COc1cccc2c1C(=O)c1c(O)c3c(c(O)c1C2=O)C[C@@](O)(C(C)=O)C[C@@H]3O[C@H]1C[C@H](N)[C@H](O)[C@H](C)O1` [daunomycin], for which, in data set [1], the Kd was 20.3 µM and the “binding class based” value was “strong”. In the case of `COc1ccc([C@@H]2Sc3ccccc3N(CCN(C)C)C(=O)[C@@H]2OC(C)=O)cc1` [diltiazem], in data set [2], the Kd is 41 µM. For the same molecule, in data set [1], the “binding class based” value was “moderate”. `COc1cccc2c1C(=O)c1c(O)c3c(c(O)c1C2=O)C[C@@](O)(C(=O)CO)C[C@@H]3O[C@H]1C[C@H](N)[C@H](O)[C@H](C)O1` [doxorubicin]: in data set [1], the Kd was 14.4 µM and the “binding class based” value was “strong”. `CN[C@@H](C)[C@H](O)c1ccccc1` [ephedrine]: the “binding class based” value in data set [1] is on record as “poor”. Consider `CC(C)NCC(O)c1ccc(O)c(O)c1` (stereo not drawn) [isoproterenol], for which, in data set [1], the “binding class based” value is “poor”.

Regarding `COCCc1ccc(OCC(O)CNC(C)C)cc1` (stereo not drawn) [metoprolol], in data set [1], the “binding class based” value is recorded as “poor”. For the molecule `Clc1ccc(COC(Cn2ccnc2)c2ccc(Cl)cc2Cl)c(Cl)c1` (stereo not drawn) [miconazole], the “binding class based” value in data set [1] is on record as “poor”. As for `CNCCC=C1c2ccccc2CCc2ccccc21` [nortriptyline], the “binding class based” value in data set [1] was “moderate”. For `CC(CN1c2ccccc2Sc2ccccc21)N(C)C` (stereo not drawn) [promethazine], in data set [1], the “binding class based” value is “moderate”. For `CCCNCC(O)COc1ccccc1C(=O)CCc1ccccc1` (stereo not drawn) [propafenone], the “binding class based” value in data set [1] is “poor”.

As for `CSc1ccc2c(c1)N(CCC1CCCCN1C)c1ccccc1S2` (stereo not drawn) [thioridazine], the Kd in data set [2] stood at 22 µM. Besides, the “binding class based” value in data set [1] was “strong”. For the molecule `CN1CCN(CCCN2c3ccccc3Sc3ccc(C(F)(F)F)cc32)CC1` [trifluoperazine], the Kd in data set [2] is 36 µM. Moreover, in data set [1], the Kd was 18.2 µM and the “binding class based” value is listed as “strong”. In addition, the “total SR microsomal Ca2+ content” value in the data set on SR microsomes was “significantly reduce”.

What is called Kd is the equilibrium constant for the complex coming apart.

(Values after article PMC3509583, “Molecular Mechanisms of Pharmaceutical Drug Binding into Calsequestrin” (International Journal of Molecular Sciences, 2012).)
